# Source: US20260297081A1, “COMPOUNDS AND METHODS OF TREATING CANCERS” (Cullgen Inc., priority 2023, published 2026)
# Target: CDK4 (Homo sapiens, UniProt P11802+Q16531)
# Experiment: CDK4 percentage degradation in Calu-1 cells (Table 6)
# Type: cell-based
# Parameters: Cells that express cyclin D1-3 and CDK4/6 proteins were treated with heterobifunctional compounds; endogenous in cells; host or cells: Calu-1
# Details: 16 hours; for inhibition at 0.04 µM: 40 nM; for inhibition at 0.2 µM: 200 nM
# Protocol: Calu-(cells were treated with heterobifunctional compounds at 40 nM or 200 nM for 16 hours A: protein percentage degradation […]; B: protein percentage degradation <80%, and ≥50%; C: protein percentage degradation <50%, and ≥30%; D; protein percentage degradation […]; -, data not available.
# Calu-1, T47D, MCF7, HCC1428 and other cells were cultured at 37° C. with 5% CO2 in RPMI 1640 or DMEM medium supplemented with 10% fetal bovine serum. Cells were authenticated using the short tandem repeat (STR) assays. Mycoplasma test results were negative. For palbo-resistant cell model, T47D cells were cultured long-term to resistance in the presence of 1 μM Palbociclib. Cells were deemed resistant when growing in the presence of Palbo at the same rate as parental cells.
# Cultured cells were washed with cold PBS once and lysed in cold RIPA buffer supplemented with protease inhibitors and phosphatase inhibitors (Beyotime Biotechnology). The solutions were then incubated at 4 ? for 30 min with gentle agitation to fully lysed cells. Cell lysates were centrifuged at 13,000 rpm for 10 min at 4 ? and pellets were discarded. Total protein concentrations in the lysates were determined following BCA assays (Beyotime Biotechnology). Cell lysates were mixed with Laemmli loading buffer and heated at 99° C. for 5 min. Proteins were resolved on SDS-PAGE and visualized using Western ECL Substrate kits on a ChemiDoc MP Imaging system (Bio-Rad). Protein bands were quantitated using the Image Lab software provided by Bio-Rad.
# CDK4, sequence (P11802 2-303 limits assumed): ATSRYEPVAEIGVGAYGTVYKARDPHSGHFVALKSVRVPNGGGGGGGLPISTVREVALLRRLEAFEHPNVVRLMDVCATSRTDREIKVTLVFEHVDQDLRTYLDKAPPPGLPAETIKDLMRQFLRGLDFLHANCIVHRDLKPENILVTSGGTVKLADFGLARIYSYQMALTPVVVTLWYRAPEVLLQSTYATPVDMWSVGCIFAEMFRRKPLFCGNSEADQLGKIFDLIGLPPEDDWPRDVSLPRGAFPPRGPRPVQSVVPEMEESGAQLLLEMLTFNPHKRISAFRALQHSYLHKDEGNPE
# CDK4, sequence (P24385 whole entry partner): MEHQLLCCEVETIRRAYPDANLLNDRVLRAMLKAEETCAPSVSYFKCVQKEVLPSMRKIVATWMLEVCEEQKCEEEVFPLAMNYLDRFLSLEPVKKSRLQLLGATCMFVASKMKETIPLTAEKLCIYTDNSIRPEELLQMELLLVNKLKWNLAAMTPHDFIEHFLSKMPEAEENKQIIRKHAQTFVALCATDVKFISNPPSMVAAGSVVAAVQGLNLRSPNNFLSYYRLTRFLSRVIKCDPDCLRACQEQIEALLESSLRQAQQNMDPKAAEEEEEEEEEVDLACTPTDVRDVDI
# CDK4, sequence (Q16531 2-1140 limits assumed): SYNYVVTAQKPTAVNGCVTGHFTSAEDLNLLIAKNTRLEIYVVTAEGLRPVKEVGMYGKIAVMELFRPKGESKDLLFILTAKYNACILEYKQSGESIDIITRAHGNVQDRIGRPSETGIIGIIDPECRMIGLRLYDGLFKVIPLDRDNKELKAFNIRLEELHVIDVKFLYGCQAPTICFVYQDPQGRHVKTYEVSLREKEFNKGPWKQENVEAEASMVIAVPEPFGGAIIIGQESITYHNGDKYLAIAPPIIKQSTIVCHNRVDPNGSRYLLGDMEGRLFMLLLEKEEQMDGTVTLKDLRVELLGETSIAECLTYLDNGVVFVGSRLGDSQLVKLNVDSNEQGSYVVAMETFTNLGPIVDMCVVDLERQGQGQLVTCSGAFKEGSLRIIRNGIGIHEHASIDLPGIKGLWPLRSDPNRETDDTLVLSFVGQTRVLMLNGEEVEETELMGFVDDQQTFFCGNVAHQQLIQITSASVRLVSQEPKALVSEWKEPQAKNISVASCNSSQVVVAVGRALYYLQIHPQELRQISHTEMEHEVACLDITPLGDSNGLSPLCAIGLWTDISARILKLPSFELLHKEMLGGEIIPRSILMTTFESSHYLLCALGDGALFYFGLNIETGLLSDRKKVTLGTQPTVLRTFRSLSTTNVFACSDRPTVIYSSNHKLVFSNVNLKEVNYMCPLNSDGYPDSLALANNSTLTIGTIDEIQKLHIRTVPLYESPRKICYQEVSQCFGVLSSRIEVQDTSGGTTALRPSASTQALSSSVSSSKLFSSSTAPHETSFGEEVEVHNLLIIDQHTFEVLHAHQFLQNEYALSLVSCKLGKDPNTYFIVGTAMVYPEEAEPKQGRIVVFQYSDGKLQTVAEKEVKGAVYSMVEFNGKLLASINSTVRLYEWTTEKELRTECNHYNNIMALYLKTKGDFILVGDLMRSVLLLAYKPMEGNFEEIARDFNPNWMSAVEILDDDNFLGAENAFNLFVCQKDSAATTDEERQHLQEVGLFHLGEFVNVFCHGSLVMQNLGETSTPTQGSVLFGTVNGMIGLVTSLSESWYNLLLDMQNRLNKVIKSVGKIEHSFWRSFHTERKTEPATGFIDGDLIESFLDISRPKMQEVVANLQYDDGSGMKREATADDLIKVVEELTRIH
SMILES,inhibition at 0.04 µM,inhibition at 0.2 µM
"CC(=O)c1c(C)c2cnc(Nc3ccc(N4CCN(CC(=O)NCCCCCNc5nc(NC6CCC6)ccc5C(=O)Nc5ccc(N(C)C)nn5)CC4)cn3)nc2n(C2CCCC2)c1=O [CPD-59, 2-((5-(2-(4-(6-((6-Acetyl-8-cyclopentyl-5-methyl-7-oxo-7,8-dihydropyrido[2,3-d]pyrimidin-2-yl)amino)pyridin-3-yl)piperazin-1-yl)acetamido)pentyl)amino)-6-(cyclobutylamino)-N-(6-(dimethylamino)pyridazin-3-yl)nicotinamide]",50 to 80%,50 to 80%
"CC(=O)c1c(C)c2cnc(Nc3ccc(N4CCN(CC(=O)NC(C)CCCCNc5nc(C6CC6)ccc5C(=O)Nc5ccc(C)c(C6CC6)n5)CC4)cn3)nc2n(C2CCCC2)c1=O (stereo not drawn) [CPD-60, 2-((5-(2-(4-(6-((6-Acetyl-8-cyclopentyl-5-methyl-7-oxo-7,8-dihydropyrido[2,3-d]pyrimidin-2-yl)amino)pyridin-3-yl)piperazin-1-yl)acetamido)hexyl)amino)-6-cyclopropyl-N-(6-cyclopropyl-5-methylpyridin-2-yl)nicotinamide]",50 to 80%,50 to 80%
"CNc1ccc(C(=O)Nc2nc(C3CC3)ccc2C)c(NCCCCCNC(=O)CN2CCN(c3ccc(Nc4ncc5c(C)c(C(C)=O)c(=O)n(C6CCCC6)c5n4)nc3)CC2)n1 [CPD-61, 2-((5-(2-(4-(6-((6-Acetyl-8-cyclopentyl-5-methyl-7-oxo-7,8-dihydropyrido[2,3-d]pyrimidin-2-yl)amino)pyridin-3-yl)piperazin-1-yl)acetamido)pentyl)amino)-N-(6-cyclopropyl-3-methylpyridin-2-yl)-6-(methylamino)nicotinamide]",< 30%,< 30%
"CNc1ccc(C(=O)NC2CC(N(C)C)C2)c(NCCCCCNC(=O)CN2CCN(c3ccc(Nc4ncc5c(C)c(C(C)=O)c(=O)n(C6CCCC6)c5n4)nc3)CC2)n1 (stereo not drawn) [CPD-64, 2-((5-(2-(4-(6-((6-Acetyl-8-cyclopentyl-5-methyl-7-oxo-7,8-dihydropyrido[2,3-d]pyrimidin-2-yl)amino)pyridin-3-yl)piperazin-1-yl)acetamido)pentyl)amino)-N-(3-(dimethylamino)cyclobutyl)-6-(methylamino)nicotinamide]",< 30%,< 30%
"CNc1ccc(C(=O)NC2CC(CN(C)C)C2)c(NCCCCCNC(=O)CN2CCN(c3ccc(Nc4ncc5c(C)c(C(C)=O)c(=O)n(C6CCCC6)c5n4)nc3)CC2)n1 (stereo not drawn) [CPD-65, 2-((5-(2-(4-(6-((6-Acetyl-8-cyclopentyl-5-methyl-7-oxo-7,8-dihydropyrido[2,3-d]pyrimidin-2-yl)amino)pyridin-3-yl)piperazin-1-yl)acetamido)pentyl)amino)-N-(3-((dimethylamino)methyl)cyclobutyl)-6-(methylamino)nicotinamide]",< 30%,< 30%
"CNc1ccc(C(=O)NC2CC3(C2)CC(N(C)C)C3)c(NCCCCCNC(=O)CN2CCN(c3ccc(Nc4ncc5c(C)c(C(C)=O)c(=O)n(C6CCCC6)c5n4)nc3)CC2)n1 (stereo not drawn) [CPD-67, 2-((5-(2-(4-(6-((6-Acetyl-8-cyclopentyl-5-methyl-7-oxo-7,8-dihydropyrido[2,3-d]pyrimidin-2-yl)amino)pyridin-3-yl)piperazin-1-yl)acetamido)pentyl)amino)-N-(6-(dimethylamino)spiro[3.3]heptan-2-yl)-6-(methylamino)nicotinamide]",< 30%,< 30%
"CC(=O)c1c(C)c2cnc(Nc3ccc(N4CCN(CC(=O)NCCCCCNc5nc(C(F)(F)F)ccc5C(=O)Nc5ccc(N(C)C)nn5)CC4)cn3)nc2n(C2CCCC2)c1=O [CPD-68, 2-((5-(2-(4-(6-((6-Acetyl-8-cyclopentyl-5-methyl-7-oxo-7,8-dihydropyrido[2,3-d]pyrimidin-2-yl)amino)pyridin-3-yl)piperazin-1-yl)acetamido)pentyl)amino)-N-(6-(dimethylamino)pyridazin-3-yl)-6-(trifluoromethyl)nicotinamide]",30 to 50%,50 to 80%
"CNc1ccc(C(=O)Nc2ccc3c(n2)CCC3)c(NC2CC3(CC(NC(=O)CN4CCN(c5ccc(Nc6ncc7c(C)c(C(C)=O)c(=O)n(C8CCCC8)c7n6)nc5)CC4)C3)C2)n1 (stereo not drawn) [CPD-69, 2-((6-(2-(4-(6-((6-Acetyl-8-cyclopentyl-5-methyl-7-oxo-7,8-dihydropyrido[2,3-d]pyrimidin-2-yl)amino)pyridin-3-yl)piperazin-1-yl)acetamido)spiro[3.3]heptan-2-yl)amino)-N-(6,7-dihydro-5H-cyclopenta[b]pyridin-2-yl)-6-(methylamino)nicotinamide]",30 to 50%,50 to 80%
"CNc1ccc(C(=O)Nc2cc(C)n(C)n2)c(NC2CC3(CC(NC(=O)CN4CCN(c5ccc(Nc6ncc7c(C)c(C(C)=O)c(=O)n(C8CCCC8)c7n6)nc5)CC4)C3)C2)n1 (stereo not drawn) [CPD-70, 2-((6-(2-(4-(6-((6-Acetyl-8-cyclopentyl-5-methyl-7-oxo-7,8-dihydropyrido[2,3-d]pyrimidin-2-yl)amino)pyridin-3-yl)piperazin-1-yl)acetamido)spiro[3.3]heptan-2-yl)amino)-N-(1,5-dimethyl-1H-pyrazol-3-yl)-6-(methylamino)nicotinamide]",50 to 80%,50 to 80%
"CNc1ccc(C(=O)N(C)c2ccc(N(C)C)nn2)c(NCCCCCNC(=O)CN2CCN(c3ccc(Nc4ncc5c(C)c(C(C)=O)c(=O)n(C6CCCC6)c5n4)nc3)CC2)n1 [CPD-71, 2-((5-(2-(4-(6-((6-acetyl-8-cyclopentyl-5-methyl-7-oxo-7,8-dihydropyrido[2,3-d]pyrimidin-2-yl)amino)pyridin-3-yl)piperazin-1-yl)acetamido)pentyl)amino)-N-(6-(dimethylamino)pyridazin-3-yl)-N-methyl-6-(methylamino)nicotinamide]",< 30%,< 30%
"CNc1ccc(C(=O)Nc2cccc(C3CC3)n2)c(NC2CC3(CC(NC(=O)CN4CCN(c5ccc(Nc6ncc7c(C)c(C(C)=O)c(=O)n(C8CCCC8)c7n6)nc5)CC4)C3)C2)n1 (stereo not drawn) [CPD-72, 2-((6-(2-(4-(6-((6-Acetyl-8-cyclopentyl-5-methyl-7-oxo-7,8-dihydropyrido[2,3-d]pyrimidin-2-yl)amino)pyridin-3-yl)piperazin-1-yl)acetamido)spiro[3.3]heptan-2-yl)amino)-N-(6-cyclopropylpyridin-2-yl)-6-(methylamino)nicotinamide]",50 to 80%,> 80%
"CNc1ccc(C(=O)Nc2ccc(C3CC3)nc2)c(NC2CC3(CC(NC(=O)CN4CCN(c5ccc(Nc6ncc7c(C)c(C(C)=O)c(=O)n(C8CCCC8)c7n6)nc5)CC4)C3)C2)n1 (stereo not drawn) [CPD-74, 2-((6-(2-(4-(6-((6-Acetyl-8-cyclopentyl-5-methyl-7-oxo-7,8-dihydropyrido[2,3-d]pyrimidin-2-yl)amino)pyridin-3-yl)piperazin-1-yl)acetamido)spiro[3.3]heptan-2-yl)amino)-N-(6-cyclopropylpyridin-3-yl)-6-(methylamino)nicotinamide]",< 30%,< 30%
